How the values were obtained:
[1] = target: T1, RyR1 (Mus musculus, UniProt E9PZQ0); assay: RyR1 immunoprecipitation from soleus muscle after 21 days of exercise, calstabin1 western blot; format: in vivo; details: subcutaneous mini-osmotic pump
T1 construct: RyR1 was immunoprecipitated from soleus muscle homogenates of mice following 21 days of exercise; from tissue; host or cells: mouse hind-limb skeletal muscle (soleus, EDL; SR microsomes for bilayer recording)
Description: RyR1 was immunoprecipitated from soleus muscle homogenates of mice following 21 days of exercise with or without simultaneous subcutaneous mini-osmotic pump treatment with S36 and then western blotted back for RyR1, phospho-epitope specific RyR1-pS2844, and calstabin1 bound to the RyR1 macromolecular complex.
The samples were incubated with protein A Sepharose beads (Amersham Pharmacia) at 4° C. for 1 h, after which the beads were washed three times with buffer. Proteins were separated on SDS PAGE gels (6% for RyR2 and 15% for calstabin2) and transferred onto nitrocellulose membranes overnight (SemiDry transfer blot, Bio-Rad). After incubation with 5% nonfat milk to prevent non-specific antibody binding and a wash in Tris-buffered saline with 0.1% Tween-20, membranes were incubated for 1-2 h at room temperature with primary antibodies anti-calstabin (1:1,000), anti-RyR (5029; 1:5,000), or anti-phospho-RyR2-pSer2809 (1:5,000), which detects PKA-phosphorylated mouse RyR1-pSer2844 and RyR2-pSer2808. After three washes, membranes were incubated with horseradish peroxidase-labeled anti-rabbit IgG (1:5,000, Transduction Laboratories, Lexington, Ky.), and developed with an enhanced chemiluminescent detection system (Amersham Pharmacia). Band densities were quantified by using QUANTITY ONE software (Bio-Rad).

[2] = test system: Wild-type mice; assay: Chronic heart failure after myocardial infarction (LAD ligation) in wild-type mice; format: in vivo, mouse; details: plasma concentration 200 nM, vs placebo
Description: Wild-type mice are subjected to permanent ligation of the left anterior descending coronary artery resulting in myocardial infarction. Seven days following myocardial infartion, mice are treated with S36 (plasma concentration 200 nM) or placebo.

[3] = test system: calpain; assay: Calpain activity in mdx mouse muscular dystrophy model during exercise; format: in vivo; details: mdx mice, 0.125 mg/kg/h for 28 days, downhill treadmill
Description: After treatment, the mice were subjected to downhill (14° angel) treadmill running for 30 min at 18 m/min. Immediately after the exercise, the animals were sacrificed and the skeletal muscles were harvested.
Preparation of EDL Homogenates: EDL muscles homogenates were prepared in 0.5 ml of homogenization buffer (20 mM NaF, 10 mM Tris-maleate, pH7.2+protease inhibitors). […] sarcoplasmic reticulum (CSR) fractions were obtained by centrifuging the homogenates at 50,000×g for 30 min. Homogenates were centrifuged at 4000×g for 20 min and the supernatants were centrifuged for 20 min at 10000×g. Aliquots of the homogenates were assayed for protein concentration and stored at −80° C.
Calpain Activity Assay: Calpain activity of EDL homogenates (30 μg) were measured using a Calpain Activity Assay kit (Calbiochem). The assay utilizes a synthetic calpain substrate, suc-LLVY-AMC. AMC is released upon cleavage with calpain and is measured fluorometrically. Assays are performed with both an activation and an inhibition buffer to determine specific calpain activity in the sample.

[4] = Plasma creatine kinase (CPK) activity in chronically exercised mice; format: in vivo, mouse
Description: Calpain and Creatine Kinase Assays: Tissue calpain activities were measured using a calpain activity assay kit (Calbiochem, San Diego, Calif.) (FIG. 42B). This assay is based on the degradation of the fluorescent peptide substrate Suc-LLVY-AMC (Calbiochem). Muscle homogenates were diluted to a final concentration of 600 μg/ml and the calpain activity in the homogenate was determined as per manufactures instructions. Plasma creatine kinase (CK) activity was assayed using the regent kit from Pointe Scientific, Inc. (Canton, Mich.) (FIG. 42A). Plasma samples (duplicates, 5 μl each) were added to 200 μl of CK reagent and the change in absorbance at 340 nm was recorded over 4 minutes using a plate reader. The average absorbance change per minute was used to determine the CPK levels as per manufacturer's instructions.
Reduced calpain activation in muscle tissue and reduced muscle tissue damage due to calstabin1 rebinding: One possible mechanism by which calcium released by leaky RyR1 channels impairs exercise performance is the activation of a member of the calpain family of Ca^2+-dependent neutral proteases, which are known to be responsible for muscle damage in a number of pathophysiological states. […] Calpain activity in muscle homogenates was assessed by means of the degradation of the synthetic calpain substrate Suc-LLVY-AMC, which fluoresces upon cleavage by calpain.

[5] = test system: C57BL/6J mice; assay: Morris water maze spatial learning in exercised mice; format: in vivo, mouse; details: end of 21-day testing period, p approximately 0.2, n=8
Description: 16 wild type C57BL/6J 3-month-old mice, pairwise-matched for sex, age, and body weight, were randomized to either S 107 treatment (10 mg/ml; 0.25 μl/hr subcutaneous osmotic pump) or “vehicle” (25% DMSO in dH2O) treatment groups.
Mice were sacrificed after 21 days for performing biochemistry, calcium imaging and ex vivo function studies.
The layout of the water maze system consists of a circular water tank divided into four quadrants (labeled 1 thru 4 in FIG. 58, with four hidden platforms (labeled 5 to 8 in FIG. 58). The following protocol was followed: Day 1: mice trained to find “hidden” platform with visible marker on platform from random starting location. On days 2-4, the visible cue was removed, and mice were repeatedly challenged to find hidden platform at target 5 in quadrant 1. The time taken for each mouse to reach the target, i.e. the “latency,” was recorded. On day 5, the previous day's protocol was repeated, then the hidden platform was removed, and each mouse's movements recorded to quantify time in various target regions. The protocol was repeated in week 2.
The platform was then removed, and the swimming pattern of the mice was assessed at the end of the 21-day testing period.

[6] = target: hERG potassium current (Homo sapiens, UniProt Q12809); assay: S107 specificity: hERG potassium current; details: 500 nM

T1 sequence (E9PZQ0 whole entry): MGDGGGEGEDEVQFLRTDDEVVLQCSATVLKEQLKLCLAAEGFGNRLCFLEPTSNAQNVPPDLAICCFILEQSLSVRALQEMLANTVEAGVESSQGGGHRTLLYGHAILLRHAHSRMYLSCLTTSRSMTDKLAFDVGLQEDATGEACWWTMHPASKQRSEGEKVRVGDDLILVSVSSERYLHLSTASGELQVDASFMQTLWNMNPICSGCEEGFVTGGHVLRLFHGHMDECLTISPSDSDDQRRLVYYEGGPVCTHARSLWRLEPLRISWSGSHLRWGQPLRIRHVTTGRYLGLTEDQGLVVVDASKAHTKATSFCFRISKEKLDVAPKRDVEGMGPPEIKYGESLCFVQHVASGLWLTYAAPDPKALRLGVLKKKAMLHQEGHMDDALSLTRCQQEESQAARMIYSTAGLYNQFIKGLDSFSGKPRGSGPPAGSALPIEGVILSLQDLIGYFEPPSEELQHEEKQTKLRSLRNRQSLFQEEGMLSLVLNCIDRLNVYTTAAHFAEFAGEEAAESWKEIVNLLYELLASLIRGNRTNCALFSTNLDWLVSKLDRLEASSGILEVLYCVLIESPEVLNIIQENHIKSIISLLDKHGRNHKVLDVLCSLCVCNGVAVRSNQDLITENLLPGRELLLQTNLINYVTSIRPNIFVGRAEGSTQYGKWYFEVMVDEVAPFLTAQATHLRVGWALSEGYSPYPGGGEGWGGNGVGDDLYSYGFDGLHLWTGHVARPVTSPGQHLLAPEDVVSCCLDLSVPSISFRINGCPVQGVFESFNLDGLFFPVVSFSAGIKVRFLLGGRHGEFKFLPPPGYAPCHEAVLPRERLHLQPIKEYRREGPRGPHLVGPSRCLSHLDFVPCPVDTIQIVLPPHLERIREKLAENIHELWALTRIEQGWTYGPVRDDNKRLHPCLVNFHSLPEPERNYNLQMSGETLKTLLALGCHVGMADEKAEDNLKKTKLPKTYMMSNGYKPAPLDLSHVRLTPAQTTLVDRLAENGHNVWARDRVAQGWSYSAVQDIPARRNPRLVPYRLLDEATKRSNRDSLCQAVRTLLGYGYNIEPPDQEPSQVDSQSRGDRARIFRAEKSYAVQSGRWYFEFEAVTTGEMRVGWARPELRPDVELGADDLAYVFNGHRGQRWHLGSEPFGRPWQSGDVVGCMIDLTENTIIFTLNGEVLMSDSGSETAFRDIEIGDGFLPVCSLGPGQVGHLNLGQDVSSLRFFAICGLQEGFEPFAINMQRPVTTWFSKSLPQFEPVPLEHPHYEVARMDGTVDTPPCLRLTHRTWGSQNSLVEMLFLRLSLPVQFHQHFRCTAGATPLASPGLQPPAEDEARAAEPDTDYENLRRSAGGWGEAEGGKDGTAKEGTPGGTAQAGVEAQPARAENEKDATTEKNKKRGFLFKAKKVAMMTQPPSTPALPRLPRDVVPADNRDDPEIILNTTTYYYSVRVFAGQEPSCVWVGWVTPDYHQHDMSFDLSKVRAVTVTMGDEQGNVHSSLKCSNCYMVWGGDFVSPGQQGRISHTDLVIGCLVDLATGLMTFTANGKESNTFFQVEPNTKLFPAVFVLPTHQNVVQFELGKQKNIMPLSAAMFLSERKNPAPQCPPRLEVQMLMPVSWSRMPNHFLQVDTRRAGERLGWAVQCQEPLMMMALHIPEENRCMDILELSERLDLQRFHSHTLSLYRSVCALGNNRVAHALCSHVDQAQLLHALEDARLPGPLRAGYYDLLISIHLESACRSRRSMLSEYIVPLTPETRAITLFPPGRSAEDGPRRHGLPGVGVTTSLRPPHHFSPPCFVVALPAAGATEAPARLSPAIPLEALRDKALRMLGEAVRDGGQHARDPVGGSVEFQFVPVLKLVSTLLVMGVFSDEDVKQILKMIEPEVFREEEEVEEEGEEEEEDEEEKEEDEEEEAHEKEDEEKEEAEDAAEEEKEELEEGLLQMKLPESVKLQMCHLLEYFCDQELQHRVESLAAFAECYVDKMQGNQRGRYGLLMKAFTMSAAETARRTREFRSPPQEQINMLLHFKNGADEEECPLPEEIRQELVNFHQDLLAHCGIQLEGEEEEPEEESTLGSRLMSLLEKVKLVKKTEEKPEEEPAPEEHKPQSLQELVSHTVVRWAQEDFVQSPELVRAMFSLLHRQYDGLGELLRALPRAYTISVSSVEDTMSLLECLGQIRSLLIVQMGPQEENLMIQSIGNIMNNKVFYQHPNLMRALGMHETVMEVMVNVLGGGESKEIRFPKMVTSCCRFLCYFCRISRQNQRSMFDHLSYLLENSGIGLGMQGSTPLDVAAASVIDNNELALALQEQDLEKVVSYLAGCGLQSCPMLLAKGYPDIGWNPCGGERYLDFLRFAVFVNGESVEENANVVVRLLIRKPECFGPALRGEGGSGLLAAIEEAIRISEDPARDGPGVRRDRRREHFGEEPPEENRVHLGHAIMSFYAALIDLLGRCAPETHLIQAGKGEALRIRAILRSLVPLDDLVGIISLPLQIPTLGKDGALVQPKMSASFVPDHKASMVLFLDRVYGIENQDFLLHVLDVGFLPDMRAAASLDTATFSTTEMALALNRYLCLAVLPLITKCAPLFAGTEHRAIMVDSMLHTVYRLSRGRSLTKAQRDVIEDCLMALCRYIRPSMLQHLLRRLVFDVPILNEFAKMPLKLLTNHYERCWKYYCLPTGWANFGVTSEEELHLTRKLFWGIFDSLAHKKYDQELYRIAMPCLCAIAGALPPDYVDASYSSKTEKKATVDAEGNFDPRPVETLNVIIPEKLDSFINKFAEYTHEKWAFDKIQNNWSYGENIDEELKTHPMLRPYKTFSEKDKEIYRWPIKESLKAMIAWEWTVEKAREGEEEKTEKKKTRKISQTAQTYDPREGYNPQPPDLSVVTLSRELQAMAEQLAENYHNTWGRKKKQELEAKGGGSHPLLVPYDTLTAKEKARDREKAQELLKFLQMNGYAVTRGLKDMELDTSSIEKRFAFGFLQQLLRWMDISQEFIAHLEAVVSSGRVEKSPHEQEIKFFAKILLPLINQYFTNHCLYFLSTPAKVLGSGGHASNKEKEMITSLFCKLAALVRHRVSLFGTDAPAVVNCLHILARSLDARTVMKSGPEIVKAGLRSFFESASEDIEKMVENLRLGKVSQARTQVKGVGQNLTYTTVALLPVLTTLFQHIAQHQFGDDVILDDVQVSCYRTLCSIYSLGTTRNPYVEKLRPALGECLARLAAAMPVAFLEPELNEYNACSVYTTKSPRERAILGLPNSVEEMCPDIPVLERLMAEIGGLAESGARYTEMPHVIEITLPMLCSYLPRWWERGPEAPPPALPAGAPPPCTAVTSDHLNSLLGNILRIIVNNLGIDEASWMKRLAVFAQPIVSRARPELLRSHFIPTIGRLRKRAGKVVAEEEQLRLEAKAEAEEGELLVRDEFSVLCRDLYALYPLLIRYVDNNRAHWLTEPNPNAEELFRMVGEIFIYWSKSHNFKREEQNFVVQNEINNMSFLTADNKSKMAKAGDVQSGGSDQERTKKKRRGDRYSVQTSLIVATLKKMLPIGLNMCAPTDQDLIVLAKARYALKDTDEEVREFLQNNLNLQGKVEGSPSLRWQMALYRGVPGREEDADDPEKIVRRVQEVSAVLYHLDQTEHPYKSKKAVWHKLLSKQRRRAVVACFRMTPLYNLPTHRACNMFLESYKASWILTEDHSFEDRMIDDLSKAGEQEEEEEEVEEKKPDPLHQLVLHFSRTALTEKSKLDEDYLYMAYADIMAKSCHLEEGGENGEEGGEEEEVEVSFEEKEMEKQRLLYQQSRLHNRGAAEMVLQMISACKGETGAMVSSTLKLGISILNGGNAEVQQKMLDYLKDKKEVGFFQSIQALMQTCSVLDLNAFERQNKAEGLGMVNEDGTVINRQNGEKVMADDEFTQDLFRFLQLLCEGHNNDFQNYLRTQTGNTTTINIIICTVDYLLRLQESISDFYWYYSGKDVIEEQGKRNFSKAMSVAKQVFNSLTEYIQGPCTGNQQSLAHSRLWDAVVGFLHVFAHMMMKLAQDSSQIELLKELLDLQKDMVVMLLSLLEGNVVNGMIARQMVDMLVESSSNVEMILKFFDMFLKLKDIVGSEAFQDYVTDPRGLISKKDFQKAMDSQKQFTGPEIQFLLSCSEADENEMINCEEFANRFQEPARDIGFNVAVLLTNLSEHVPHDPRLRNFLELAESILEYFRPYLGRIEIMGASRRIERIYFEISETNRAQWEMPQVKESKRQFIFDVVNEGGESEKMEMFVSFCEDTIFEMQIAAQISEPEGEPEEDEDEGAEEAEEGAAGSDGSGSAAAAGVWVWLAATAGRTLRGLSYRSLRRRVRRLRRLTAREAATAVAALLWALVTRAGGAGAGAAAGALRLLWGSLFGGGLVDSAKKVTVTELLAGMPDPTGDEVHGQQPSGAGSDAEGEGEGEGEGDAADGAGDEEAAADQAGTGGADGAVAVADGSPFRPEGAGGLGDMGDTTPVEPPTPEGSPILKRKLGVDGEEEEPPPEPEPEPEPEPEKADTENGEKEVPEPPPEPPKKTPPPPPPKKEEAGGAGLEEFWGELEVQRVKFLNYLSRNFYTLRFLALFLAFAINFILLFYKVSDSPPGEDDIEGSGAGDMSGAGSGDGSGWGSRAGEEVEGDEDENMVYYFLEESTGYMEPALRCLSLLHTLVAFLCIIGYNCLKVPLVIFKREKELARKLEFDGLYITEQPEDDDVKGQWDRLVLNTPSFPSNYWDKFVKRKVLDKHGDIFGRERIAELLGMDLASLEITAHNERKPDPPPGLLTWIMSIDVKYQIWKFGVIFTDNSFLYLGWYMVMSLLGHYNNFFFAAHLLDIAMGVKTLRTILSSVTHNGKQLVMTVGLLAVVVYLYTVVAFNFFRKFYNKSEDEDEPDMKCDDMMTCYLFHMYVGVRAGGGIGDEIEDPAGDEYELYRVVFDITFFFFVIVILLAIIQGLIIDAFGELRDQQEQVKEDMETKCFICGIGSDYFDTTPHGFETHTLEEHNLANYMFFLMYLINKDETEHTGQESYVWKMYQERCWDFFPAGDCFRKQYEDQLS
T1 sequence (P26883 2-108 partner limits assumed): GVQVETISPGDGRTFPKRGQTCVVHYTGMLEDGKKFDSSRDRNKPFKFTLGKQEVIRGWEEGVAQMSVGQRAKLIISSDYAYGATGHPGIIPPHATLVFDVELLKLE

Structure (SMILES)	calstabin1 bound to RyR1 [1]	Heart weight to body weight (HW/BW) ratio [2]	pressure-volume loop quantification (dP/dt) [2]	calpain activity [3]	plasma CPK activity levels [4]	learning / persistence in Morris water maze probe [5]	effect on hERG potassium current [6]
COc1ccc2c(c1)CN(C(=O)C(=O)O)CCS2 [S36]	allows RyR1 to rebind calstabin1	reverse remodeling	improved cardiac contractility	–	–	–	–
COc1ccc2c(c1)CN(C)CCS2 [S107]	–	–	–	reduces calpain activity	reduced close to the levels observed in sedentary controls	trend towards improved learning or increased persistence	not to affect

— patent US8710045B2, “Agents for preventing and treating disorders involving modulation of the ryanodine receptors” (The Trustees of Columbia University in the City of New York, priority 2004, dated 2014)
